Test results reported in article PMC10301570 (Molecules, 2023).
Like-named read-outs stand apart in the source and are kept apart here.

Legend:
[1] = In-vivo pharmacokinetic study in rats after oral administration of EECQ extract; details: serum, oral 400 mg/Kg EECQ, mean ± SD, n = 6; for AUC(0-inf): male, SD, po; for AUC(0-inf) / AUC(0-t) / Cmax / Tmax / half-life: rat
Experimental: Liquid-liquid extraction was employed for processing samples of quercetin and t-res in rat serum. CS/QC samples were prepared using 10 μL of sample and 90 μL of control serum or 100 μL serum (in vivo) samples were treated with 100 μL of 1 mg/mL β-glucuronidase enzyme in 100 mM ammonium acetate buffer (pH 5) and incubated for 2 h at 37 °C. The reaction mixtures were precipitated with 200 μL of 0.1% FA in methanol-containing IS (FFA). Samples were vortexed for 5 min at 2000 rpm, and then ethyl acetate was added, the sample was vortexed and centrifuged at 10,000 rpm for 10 min. The organic layer was then collected and dried at 37 °C using a TurboVap and nitrogen stream. The dried residues were reconstituted with mobile phase and injected into LC-MS/MS for analysis.
The pharmacokinetic study of quercetin and t-res was performed by an oral administration of EECQ extract (400 mg/kg) in male SD rats (n = 6). The EECQ oral dose was selected based on our previous publication. […] Blood samples were collected from the retro-orbital plexus of rats at predetermined time points 0.25, 0.5, 1, 2, 4, 8, 12, 24, and 48 h after oral administration. Serum was obtained by centrifuging the blood and samples were stored at −80 °C until analysis. Serum samples were processed using the LLE extraction mentioned in Section 4.6 and analyzed using the validated LC-MS/MS method. The non-compartment model was used to calculate the pharmacokinetic (PK) parameters for quercetin and t-res using WinNonlin 6.3 software (Pharsight Corporation, Saint Louis, MO, USA). The PK parameters were estimated, including Cmax, maximum plasma concentration; t1/2, half-life; Tmax, time to reach Cmax; CL/F, clearance and Vd/F, apparent volume of distribution. AUC0–t (area under the concentration curve from zero time point to the last time point) was determined with the trapezoidal rule up to the last measured plasma concentration, Clast. AUC0–∞ (AUC curve from zero time point to infinity) was determined by adding AUC0–t and Clast/Ke.

Plasma stability = type: in vitro ADME; details: rat, 37 °C
Experimental: The preincubation of rat plasma was done for 5 min at 37 °C. After pre-incubation, quercetin and t-res were added to plasma at a concentration of 100 µg/mL, and reaction tubes were incubated for 3 h in a shaking water bath at 37 °C. Aliquots were collected at predetermined timepoints of 0, 5, 15, 30, 45, 60, 90, 120, and 180 min. Plasma samples were processed immediately using the extraction method mentioned in Section 4.6. The % remaining of the drug at various time intervals relative to the initial time point (time 0) was used to calculate the plasma stability.

[2] = Stability in rat serum under storage conditions (autosampler, benchtop, long-term, freeze-thaw); type: in vitro ADME; details: for Autosampler stability, accuracy / Autosampler stability, measured conc. / Benchtop stability, accuracy / Benchtop stability, measured conc. / Freeze-thaw stability, accuracy / Freeze-thaw stability, measured conc. / Long-term stability, accuracy / Long-term stability, measured conc.: rat serum, n = 6; for Autosampler stability, accuracy / Autosampler stability, measured conc.: 4 ± 2 °C, 24 h; for Benchtop stability, accuracy / Benchtop stability, measured conc.: 24 ± 4 °C, 8 h; for Freeze-thaw stability, accuracy / Freeze-thaw stability, measured conc. / Long-term stability, accuracy / Long-term stability, measured conc.: −70 ± 10 °C; for Freeze-thaw stability, accuracy / Freeze-thaw stability, measured conc.: 3 cycles; for Long-term stability, accuracy / Long-term stability, measured conc.: 30 days
Experimental: Stability studies were performed using three different QC levels including LQC, MQC, and HQC with six replicates. The extracted serum samples were analyzed using different storage conditions including autosampler (4 ± 2 °C for 24 h), bench top stability (24 ± 4 °C for 8 h), and long-term stability (−70 ± 10 °C for 30 days). Freeze-thaw stability was evaluated after subjecting the samples to three cycles of freezing (−70 ± 10 °C for 12 h) and thawing. Stability samples were quantified against fresh calibration and QC samples. The accuracy and precision of stability samples should meet the acceptance criterion of ±15%.

[3] = rat, microsomes, 1 h
Experimental: (§2) The 0.8 mL reaction mixture was prepared using RLM at 0.5 mg/mL, 40 mM MgCl2, in 50 mM Tris-HCl buffer (pH 7.4). 100 µg/mL of quercetin and t-res was added to the reaction mixture and preincubated in a shaking water bath at 37 °C and 1 mM NADPH was added to the reaction milieu to initiate the reactions. Samples were collected at predetermined time points up to 60 min and processed for LC-MS/MS analysis [54].

[4] = set-up: method as in Meng-xiang Su et al. (2011) [47]; details: rat plasma, oral, 0.6 mg/kg; ref Meng-xiang Su et al. (2011) [47]; cited from earlier work
[5] = Stability in simulated gastric fluid (SGF, pH 1.2); type: in vitro ADME; details: 100 μg/mL, SGF pH 1.2, 37 °C, 0–60 min
Experimental: (§1) The stability of quercetin and t-res was tested at 100 μg/mL in simulated gastric (SGF, pH 1.2) and intestinal (SIF, pH 6.8) fluids (n = 3). The manufacturer’s protocol was followed to prepare biorelevant media with enzymes. Quercetin and t-res were exposed to SGF and SIF buffers with and without enzymes and incubated in a shaking water bath at 37 °C. 100 μL samples were collected at specific intervals (0–60 min for SGF and 0–180 min for SIF). At a concentration of 100 µg/mL samples were extracted using ACN containing I.S (1:2, v/v), vortexed for 5 min, and then centrifuged at 10,000 rpm for 5 min [52]. The supernatant of the samples was utilized for LC-MS/MS analysis. The % remaining of quercetin and t-res was calculated to determine the stability using Equation (1). (1) % Drug remaining=Concentration of drug at time t/Concentration of drug at time 0×100

[6] = Stability in simulated intestinal fluid (SIF, pH 6.8); type: in vitro ADME; details: 100 μg/mL, SIF pH 6.8, 37 °C, 0–180 min
Experimental: as §1

[7] = set-up: method as in Dinesh Kumar V et al. (2014) [48]; details: rat plasma, oral, 25 mg/kg, ref Dinesh Kumar V et al. (2014) [48], cited from earlier work
[8] = Metabolic stability in rat liver microsomes (RLM); details: RLM 0.5 mg/mL, 100 µg/mL, 1 mM NADPH, up to 60 min
Experimental: as §2

[9] = nominal conc. 203 ng/mL (204 for trans-resveratrol)

AUC(0-inf) ([1]; 400 mg/kg) [ng·h/mL] | AUC(0-t) ([1]; male SD rats) [ng·h/mL] | Cmax ([1]; male SD rats) [ng/mL] | Tmax ([1]; male SD rats) [min] | half-life ([1]; male SD rats) [min] | remaining at 3 h, 100 µg/mL (Plasma stability) [%] | Autosampler stability, accuracy ([2]; nominal conc. 30 ng/mL) [%] | Autosampler stability, measured conc. ([2]; nominal conc. 30 ng/mL) [ng/mL] | Autosampler stability, accuracy [2, 9] [%] | Autosampler stability, measured conc. [2, 9] [ng/mL] | Autosampler stability, accuracy ([2]; nominal conc. 375 ng/mL) [%] | Autosampler stability, measured conc. ([2]; nominal conc. 375 ng/mL) [ng/mL] | Benchtop stability, accuracy ([2]; nominal conc. 30 ng/mL) [%] | Benchtop stability, measured conc. ([2]; nominal conc. 30 ng/mL) [ng/mL] | Benchtop stability, accuracy [2, 9] [%] | Benchtop stability, measured conc. [2, 9] [ng/mL] | Benchtop stability, accuracy ([2]; nominal conc. 375 ng/mL) [%] | Benchtop stability, measured conc. ([2]; nominal conc. 375 ng/mL) [ng/mL] | Freeze-thaw stability, accuracy ([2]; nominal conc. 30 ng/mL) [%] | Freeze-thaw stability, accuracy [2, 9] [%] | SMILES | further results
157 ± 21.1 | 145 ± 20.8 | 56.4 ± 13.1 | 34.8 ± 12 | 90.6 ± 24 | 84.4 | 94.53 | 28.36 ± 2.19 | 93.73 | 190.28 ± 13.20 | 99.51 | 373.15 ± 5.84 | 95.08 | 28.52 ± 3.05 | 93.36 | 189.53 ± 8.81 | 98.17 | 368.13 ± 12.29 | 91.32 | 93.32 | Oc1ccc(/C=C/c2cc(O)cc(O)c2)cc1 [trans-Resveratrol, trans-resveratrol] | Freeze-thaw stability, measured conc. [2, 9]: 189.43 ± 17.82 ng/mL; Freeze-thaw stability, accuracy ([2]; nominal conc. 375 ng/mL): 98.11%; Freeze-thaw stability, measured conc. ([2]; nominal conc. 375 ng/mL): 367.92 ± 11.94 ng/mL; Long-term stability, accuracy ([2]; nominal conc. 30 ng/mL): 101.68%; Long-term stability, measured conc. ([2]; nominal conc. 30 ng/mL): 30.50 ± 2.53 ng/mL; Long-term stability, accuracy [2, 9]: 93.14%; Long-term stability, measured conc. [2, 9]: 189.08 ± 14.18 ng/mL; Long-term stability, accuracy ([2]; nominal conc. 375 ng/mL): 97.67%; Long-term stability, measured conc. ([2]; nominal conc. 375 ng/mL): 366.25 ± 11.38 ng/mL; Phase I metabolism in RLM [3]: no phase I metabolism was observed; Phase I metabolism in RLM ([3]; 100 µg/mL, pH 7.4): no phase-1 metabolism observed; AUC(0–t) [4]: 2835 ± 1655 ng·min/mL; Cmax [4]: 23 ± 8 ng/mL; half-life [4]: 36 ± 6 min
471 ± 51.5 | 447 ± 47 | 57.6 ± 14.3 | 70.2 ± 24.6 | 295 ± 41.4 | 83.4 | 92.56 | 27.77 ± 1.50 | 89.32 | 181.31 ± 8.65 | 99.44 | 372.92 ± 2.21 | 90.29 | 27.09 ± 1.67 | 90.96 | 184.64 ± 7.16 | 98.96 | 371.12 ± 2.43 | 98.12 | 93.68 | O=c1c(O)c(-c2ccc(O)c(O)c2)oc2cc(O)cc(O)c12 [Quercetin] | AUC0–∞ ([1]; male SD rats, 400 mg/kg): 474.23 ± 51.49 ng·h/mL; Stability in SGF [5]: Moderate instability; Stability in SIF [6]: stable; Stability in rat serum at variable storage conditions ([2]; autosampler, benchtop, freeze-thaw, long-term): stable; Freeze-thaw stability, measured conc. ([2]; nominal conc. 30 ng/mL): 29.44 ± 2.73 ng/mL; Freeze-thaw stability, measured conc. [2, 9]: 190.17 ± 8.97 ng/mL; Freeze-thaw stability, accuracy ([2]; nominal conc. 375 ng/mL): 98.63%; Freeze-thaw stability, measured conc. ([2]; nominal conc. 375 ng/mL): 369.86 ± 4.43 ng/mL; Long-term stability, accuracy ([2]; nominal conc. 30 ng/mL): 100.22%; Long-term stability, measured conc. ([2]; nominal conc. 30 ng/mL): 30.07 ± 2.06 ng/mL; Long-term stability, accuracy [2, 9]: 98.38%; Long-term stability, measured conc. [2, 9]: 199.71 ± 8.70 ng/mL; Long-term stability, accuracy ([2]; nominal conc. 375 ng/mL): 99.48%; Long-term stability, measured conc. ([2]; nominal conc. 375 ng/mL): 373.05 ± 10.65 ng/mL; AUC(0–t) [7]: 3283.75 ng·h/mL; Tmax [7]: 4.00; plasma half-life [7]: 4.96 h; Cmax ([7]; in ng/mL): 369.20; % remaining in RLM [8]: 53.78
